Experimental data reported in ChEMBL document CHEMBL1122692, “Catechol derivatives of 6-aminobenzocycloheptene: assessment of dopaminergic effects” (1984).

Legend:
Assay type in all cases: functional
Felis catus [1] = assay: Compound was evaluated for the biological activity (pressure) in anesthetized cats at a dose of 40 ug/kg
Felis catus [2] = assay: Compound was evaluated for the biological activity (pressure) in anesthetized cats at a dose of 20 ug/kg
Felis catus [3] = assay: Compound was evaluated for the biological activity (pressure) in anesthetized cats at a dose of 10 ug/kg

NC1CCCc2c(ccc(O)c2O)C1 (stereo not drawn)
Pressure (Felis catus [1]): 70 mmHg | Pressure (Felis catus [2]): 38 mmHg | Pressure (Felis catus [3]): 15 mmHg
